In paper PMC9727064, “Performance assessment and economic analysis of a human Liver-Chip for predictive toxicology” (Communications Medicine, 2022):
Where two headings read alike, the source gives them in different places.

What was measured:
[1] = test system: human Liver-Chip (hepatocyte layer); assay: Liver-Chip immunofluorescence imaging (caspase 3/7, TMRM, AdipoRed/LipidTOX); format: cell-based; conditions: for Immunofluorescent findings, donor one (Supplementary Figure 3) / Immunofluorescent findings, donor two (Supplementary Figure 3): day 7 post-drug administration, hepatocyte layer, top channel
In short: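 Fixed Liver-Chip halves stained for lipid (LipidTOX Deep Red 1:1000 with NucBlue, 30 min RT) and MRP2 antibody; live bottom halves stained with TMRM (1:1000) plus NucBlue, 30 min at 37 °C. Confocal z-stacks (3.6 µm steps, 28–32 planes) acquired on a high-content imager at 37 °C/5% CO2.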

[2] = test system: human Liver-Chip (hepatocytes and non-parenchymal cells)
In short: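 Brightfield images over three fields of view on days 1, 3 and 7 of each cycle, scored 0–4 by two blinded scorers for cytotoxicity in the hepatocyte (top) and non-parenchymal cell (bottom) channels. Scores reflect monolayer integrity, junction loss, cytoplasmic granulation, debris agglomeration and percentage dead cells.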

[3] = cited from earlier work
[4] = test system: clinical drug-induced liver injury; conditions: clinical DILI severity category 1 to 5; cited from earlier work
human Liver-Chip = assay: Liver-Chip DILI prediction: minimum toxic concentration and margin of safety (MOS)-like figure; conditions: free IC50 concentration in the assay divided by total concentration of drug in human plasma at Cmax;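 also: Toxic concentration is the lowest across albumin IC50 and ALT and morphology endpoints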
Excerpt: Because the fundamental principles of drug action dictate that free (unbound) drug concentrations drive drug effects, we explored an alternative methodology for calculating the MOS-like values by accounting for protein binding using a previously reported approach. Accordingly, we reanalyzed the findings for the 27 drugs in our study by accounting for protein binding.

SMILES | Immunofluorescence staining result in words ([1]; caspase 3/7 (apoptosis) or TMRM (mitotoxicity), 7 days) | Immunofluorescent findings, donor one (Supplementary Figure 3) [1] | IF imaging Donor 1 ([1]; expanded drug list) | Morphological injury score change in words [2] | Morphology Donor 1 ([2]; human) | Expected Fraction Unbound in Plasma ([3]; plasma, ref Lau, S.W.J. (65)) | Garside DILI rank [4] | Chip MOS donor 1 (human Liver-Chip) | Immunofluorescent findings, donor two (Supplementary Figure 3) [1] | IF imaging Donor 1 ([1]; matched pair analysis) | IF imaging Donor 2 ([1]; matched pair analysis) | Morphology Donor 1 ([2]; lowest concentration causing an increase in cellular morphology score, donor 1) | Morphology Donor 2 ([2]; lowest concentration causing an increase in cellular morphology score, donor 2) | Chip MOS both donors (human Liver-Chip) | Chip MOS donor 2 (human Liver-Chip) | Morphology Donor 2 ([2]; human) | Expected Fraction Unbound in Plasma ([3]; plasma, reference data from the literature, no reference) | IF imaging Donor 2 ([1]; expanded drug list) | plasma protein bound [3] [%] | Expected Fraction Unbound in Plasma ([3]; human plasma, ref Scott, L. J. (69))
CC[C@H]1OC(=O)[C@H](C)C(=O)[C@H](C)[C@@H](O[C@@H]2O[C@H](C)C[C@H](N(C)C)[C@H]2O)[C@](C)(OC)C[C@@H](C)C(=O)[C@H](C)[C@H]2N(CCCCn3cnc(-c4cccnc4)c3)C(=O)O[C@]12C [Telithromycin] | apoptosis-mediated cell death | Apoptosis | Apoptosis | concomitant increase | 100 unbound human Cmax multiplier | 0.4 | 1 | 6 | – | – | – | – | – | – | – | – | – | – | – | –
Cc1ccc(C(=O)c2cc(O)c(O)c([N+](=O)[O-])c2)cc1 [Tolcapone] | – | Mitotoxicity | – | – | – | 0.0012 | 1 | 0.004 | Mitotoxicity | Mitotoxicity | Mitotoxicity | 10 multiples of the unbound human Cmax | 100 multiples of the unbound human Cmax | 0.004 | 0.05 | – | – | – | – | –
Cc1c(C)c2c(c(C)c1O)CCC(C)(COc1ccc(CC3SC(=O)NC3=O)cc1)O2 (stereo not drawn) [Troglitazone] | – | Apoptosis | – | – | 300 multiples of the unbound human Cmax | – | 1 | 0.03 | Apoptosis | Apoptosis | Apoptosis | – | – | 0.03 | 0.1 | 300 multiples of the unbound human Cmax | 0.0011 | – | – | –
CC(c1cc2ccccc2s1)N(O)C(N)=O (stereo not drawn) [Zileuton] | – | No findings | No findings | – | > 100 unbound human Cmax multiplier | – | 2 | >7 | No findings | – | – | – | – | 15 | 15 | > 300 unbound human Cmax multiplier | – | No findings | > 93 | 0.07
